The values below come from patent US8940777B2 (priority 2008, dated 2015).

In the assay the test system is Rhizoctonia solani. The class given is in vivo. The following applies: cucumber (Sagami Hanjiro) seeds coated, 7 days after sowing. The method, then:
Thoroughly mixed were 2.5 parts of clothianidin, 1.25 parts of tolclofos-methyl, 14 parts of polyoxyethylene styryl phenyl ether, 6 parts of calcium dodecylbenzenesulfonate and 76.25 parts of xylene to give a formulation.
The formulation was diluted with acetone, to prepare an acetone mixed solution containing clothianidin and tolclofos-methyl of given concentration.
Five (5) g of cucumber (Sagami Hanjiro) seeds were coated with 1 ml of the mixed solution using a rotation mode seed treating machine (Seed Dresser, manufactured by Hans-Ulrich Hege GmbH), to give treated seeds.
The treated seeds were allowed to stand still overnight, then, sowed on a soil stuffed in a plastic pot, and covered by a soil blended with Rhizoctonia solani cultured in a bran medium. Cultivation thereof was performed at room temperature while irrigating. Seven (7) days after sowing, the number of non-budded seeds was checked, and the damaged ratio was calculated from the formula 1. Based on the damaged ratio, the control value was calculated from the formula 2.
For comparison, an acetone solution containing clothianidin of a given concentration, and an acetone solution containing tolclofos-methyl of a given concentration were prepared, and subjected to the same test. […]

Molecules are shown by their SMILES. Read-outs that look alike come from different tables or passages of the source.

As to `CN/C(=N\[N+](=O)[O-])NCc1cnc(Cl)s1` [Clothianidin, clothianidin], the Control value (active ingredient amount 200 g/100 kg-seed) turned out to be 4.

Turning to `COP(=S)(OC)Oc1c(Cl)cc(C)cc1Cl` [Tolclofos-methyl, tolclofos-methyl], the Control value (active ingredient amount 10 g/100 kg-seed) is recorded as 57.
